For data set [1], the system named is rats. Kind of data set: Quantitative ex vivo gamma counting of ^99mTc-duramycin uptake in excised tissues after chemotoxic drug. The method, then:
This initial quantitative study was conducted by determining changes in radioactivity uptake in excised tissues using gamma counting ex vivo. Experiments were designed to survey changes in ^99mTc-duramycin uptake in tissues from treated versus untreated control groups after administration of a single dosage of each chemotherapeutic drug for each population of animals. […] Accordingly, at designated time post-treatment, ^99mTc-duramycin was injected intravenously and each animal was euthanized for tissue collection and gamma counting. This is a standard practice in radionuclide studies that provides precise, quantitative biodistribution data for measuring changes in tracer uptake.
The data can be expressed in two ways—net change in ^99mTc-duramycin uptake per unit tissue in cyclophosphamide-treated tissues relative to the mean value of the non-treated control population (FIG. 1A), and fold changes in ^99mTc-duramycin uptake over the mean of control (1B).
An organ, such as the kidney, consists of different anatomical components (cortex, medulla, hilum), where the in vivo imaging data provide more spatial information by identifying signal changes within the substructures of an organ (see in vivo sections below).
Although the ex vivo gamma counting is a standard practice in radionuclide studies, a notable limitation is that the tissue collection may be prone to sampling errors. In addition, this approach provides limited spatial information in terms of the distribution within an intact organ/tissue.

Data set [2] deals with rats. The data set can be described thus: In vivo single time point SPECT/CT/MRI imaging of ^99mTc-duramycin uptake (toxicity scan). The protocol:
(§1) The single time point studies were terminal so that they allowed immediate tissue retrieval for cross-validation using histopathological analyses. […] Each animal was injected with about 2 mCi of ^99mTc-duramycin and after 1 hour the SPECT/CT/MRI data were acquired. From each group, the animals were immediately euthanized after imaging. The organs and tissues from three randomly selected individuals were collected, fixed and processed for histopathology.
A second group of animals was with methotrexate as directed by the literature in an effort to examine whether early changes in toxicity would correlate with increases in ^99mTc-duramycin uptake.

Data set [3] relates to rats. The data set can be described thus: Histopathology of organs and tissues collected after single time point imaging. The method, then:
as §1

Data set [4] concerns rats. As to conditions: cyclophosphamide single dose; each individual normalized to own baseline.
Method: This approach involved the acquisition of a baseline scan, prior to drug administration, followed by multiple post-treatment scans spanning the acute phase at 8, 48, 96, and 168 hours. […] In addition, the baseline scan for each animal serves as an internal control. The repeated noninvasive imaging allowed continuous monitoring of tissue changes with individualized data analysis.
Setting [5] is: cyclophosphamide single dose 80 mg/kg i.p., 2 days.
Setting [6] is: cyclophosphamide single dose, day-2.

SMILES strings stand for the structures.

For the compound `CN(Cc1cnc2nc(N)nc(N)c2n1)c1ccc(C(=O)N[C@@H](CCC(=O)O)C(=O)O)cc1` [methotrexate], in the data set on rats [1] (rat, in vivo, 100 mg/kg), the “change in ^99mTc-duramycin uptake in tissues” value was “notable elevation in ^99mTc-duramycin uptake in a number of tissues”; the “most prominent tissues according to fold changes” value is “small intestine, colon, liver, thymus and kidneys”; the “tissues with the highest increase in ^99mTc-duramycin uptake” value was “kidneys, small intestine, liver, and colon”. Further, in the data set on rats [2] (rat, in vivo), the “changes in skin signals” value is listed as “non-uniform throughout the body”; the “signals in the joints” value is “drastically elevated signals in the joints”; the “tissues with highest changes in terms of fold elevation” value is “colon, kidney—medulla, bone, spleen, and kidney—cortex”; the “tissues with the highest signal changes as net ^99mTc-duramycin uptake per unit tissue” value was “kidneys and colon”. For the same compound, the histopathology of joints result in the data set with rats [3] (rat, in vivo) was “joint degeneration and thrombosis”.

On to `N.N.[Cl][Pt][Cl]` [cisplatin], for which the histopathology of kidney entry in the data set on rats [3] (rat, in vivo) was “cellular degradation and significantly elevated apoptosis in the cortical region”.

On to `O=P1(N(CCCl)CCCl)NCCCO1` (stereo not drawn) [cyclophosphamide], for which, in the data set on rats [1] (setting [5]), the “tissues with highest fold changes in ^99mTc-duramycin uptake” value was “thymus, adipose tissue, pancreas, brain, right ventricle, liver and bone”; the “tissues with the largest elevation in ^99mTc-duramycin uptake” value was “kidneys, liver, spleen, thymus, lung, small intestine and bone”. Also, in the data set on rats [2] (setting [6]), the “key tissues with changes in ^99mTc-duramycin uptake” value was “kidneys—medulla and cortex, spleen, thymus and gut”; the “region of the kidneys affected” value is listed as “primarily affect the infundibulum of the kidneys”; the “tissues with statistically elevated, relatively low signals” value is “bones, adipose tissue, heart, lung, muscle, skin and stomach”. Besides, in the data set with rats [3] (setting [6]), the “apoptotic index, kidney medulla” value is “significantly elevated apoptotic index in the local tissue”; the “apoptotic index, thymus” value is on record as “significantly elevated apoptotic index”; the “histopathology of bones (epiphysis regions, marrow)” value is “extensive decellularization in the marrow”. In the data set on rats [4], the “tissues with elevated coefficients of variation compared to the baseline” value was “bone, colon, gut, heart, skin, and thymus”.
